Reference: paper PMC9574860, “Chemical Toolkit for PARK7: Potent, Selective, and High-Throughput” (Journal of Medicinal Chemistry, 2022)

Experiments:
UCHL1 [1] = target: T1, UCHL1 (Homo sapiens, UniProt P09936); experiment: JYQ-92 labeling in HEK293T cell lysate with UCHL1 knockdown; conditions: HEK293T lysate with PARK7 or UCHL1 knockdown, probe 1 μM; Figure 4D
T1 sequence (P09936 1-223): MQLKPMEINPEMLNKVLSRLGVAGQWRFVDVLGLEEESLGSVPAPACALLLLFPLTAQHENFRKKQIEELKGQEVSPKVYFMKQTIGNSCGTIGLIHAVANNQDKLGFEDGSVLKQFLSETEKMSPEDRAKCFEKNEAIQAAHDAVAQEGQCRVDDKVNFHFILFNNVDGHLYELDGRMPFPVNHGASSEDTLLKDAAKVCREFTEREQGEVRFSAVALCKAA
Method: (§1) We next investigated the ability of JYQ-92 to label PARK7 activity in HEK293T cell lysates by treating with the increasing concentration of JYQ-92 (0–5 μM) for 1 h. […] To study its specificity toward PARK7 compared to UCHL1 in more detail, HEK293T cell lysates where we knockdown PARK7 or UCHL1 were treated with 1 μM final concentration of JYQ-92.
(§2) The samples were kept on ice and sonicated using 10 cycles of 30 s pulse on and 30 s pulse off (Bioruptor, Diagenode). […] For the labeling experiments, the prepared cell lysate was incubated with an indicated concentration of JYQ-92 in each experiment for 1 h at 37 °C. The reactions were stopped by adding NuPAGE LDS sample buffer (4×).

PARK7 [2] = target: T2, PARK7 (Homo sapiens, UniProt Q99497); experiment: Probe JYQ-92 labeling of endogenous PARK7 in HEK293T cell lysate; conditions: 0–5 μM probe, 1 h, Figure 4C
T2 sequence (Q99497 1-189): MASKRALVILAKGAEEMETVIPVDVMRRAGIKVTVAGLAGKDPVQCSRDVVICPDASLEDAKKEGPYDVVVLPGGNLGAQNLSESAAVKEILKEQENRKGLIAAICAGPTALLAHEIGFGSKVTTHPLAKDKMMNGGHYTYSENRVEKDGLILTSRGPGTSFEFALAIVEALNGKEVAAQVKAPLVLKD
Method: as §1, §2

PARK7 [3] = target: T2, PARK7; experiment: Probe labeling of purified recombinant PARK7 (SDS-PAGE, fluorescence scanning); assay type: binding; set-up: GST (N, cleaved yes); made in house; host or cells: E. coli BL21(DE3) Rosetta2; conditions: for Probe concentration from which PARK7 labeling was observed: purified PARK7 1 μM, 1 h 37 °C, Figure 4A
Source text: PARK7 inhibitor JYQ-88 was further converted into activity-based probes by installing SulfoCy5, Rhodamine110, or BodipyFL. We took advantage of the azide moiety in JYQ-88 and conjugated alkyne versions of these dyes using the copper(I)-catalyzed azide alkyne cycloaddition (CuAAC) to obtain compounds JYQ-92, JYQ-93, and JYQ-107 (Scheme 2). We next investigated the ability of the probes to label and visualize PARK7. […] The SulfoCy5 probe JYQ-92 and Rhodamine110 probe JYQ-107 labeled PARK7 already at 1 μM, while the BodipyFL probe JYQ-93 was less efficient than the other probes as PARK7 labeling was only observed from 5 μM.
All the labeling assays were performed in Tris buffer (50 mM Tris–HCl, 150 mM NaCl, 2 mM TCEP, pH 7.5). For labeling with the 8RK59 probe, 1 μM final concentrations of UCHL1 and PARK7 were individually or together incubated with 2 μM final concentrations of 8RK59 for 30 min at 37 °C, followed by protein visualization. For labeling with JYQ-92, JYQ-93, and JYQ-107, 1 μM final concentration of PARK7 was incubated with different concentrations (0, 0.1, 0.5, 1, 2, 5, and 10 μM) of the indicated probes for 1 h at 37 °C. […] These samples were resolved by SDS-PAGE using precast Bis-Tris gels (Invitrogen, NuPAGE) with MES SDS running buffer (Novex, NuPAGE).

DUBs = experiment: DUB activity profiling in HEK293T cell lysate with general DUB probe Rho-Ub-PA; assay type: biochemical; conditions: compound 5 μM 1 h 37 °C, then Rho-Ub-PA 30 min, Figure S5
Method: Due to the structural similarity of PARK7 inhibitor JYQ-88 and UCHL1 inhibitor 8RK64 and the fact that many cyanimide-containing compounds have been identified as DUB inhibitors,[35],[37] we investigated the inhibitory potential of JYQ-88 and JYQ-92 toward DUBs. After treating the HEK293T cell lysate with JYQ-88 and JYQ-92, along with UCHL1 inhibitors, 6RK73 and 8RK64 as controls,[38] the remaining activity of DUBs was determined using the general DUB probe Rho-Ub-PA (Figure S5).[39]
Figure S5. Fluorescence labeling of DUBs to investigate their remaining activity by Rh-Ub-
PA after the treatment with PARK7 inhibitor JYQ-88 and probe JYQ-92. UCHL1 inhibitors,
6RK73 and 8RK64, were used as a control. HEK293T cell lysate was treated with 5 μM final
MOPS SDS running buffer (Novex, NuPAGE) and visualized by fluorescence scanning on a
Typhoon FLA 9500 (GE Healthcare Life Sciences) using a Rhodamine channel (λex/em
(1 picture or pasted object on this page, not shown here)

UCHL1 [4] = target: T1, UCHL1; experiment: UCHL1 activity assay (Ub-Rho-Morpholine or Ub-AMC substrate); assay type: biochemical; conditions: UCHL1 1 nM, 1 h preincubation; read-out: UbRhoMP assay UCHL1 IC50
Method: The assay was performed in a buffer containing 50 mM Tris·HCl, 100 mM NaCl at pH 7.5, 2.0 mM cysteine, 1 mg/mL 3-[(3-cholamidopropyl)dimethylammonio]propanesulfonic acid (CHAPS), and 0.5 mg/mL bovine serum albumin and conducted in a 384-well plate (Corning 3820) with a reaction volume 20 μL in triplicate. The compounds were dissolved in DMSO as 10, 1, and 0.1 mM stock solutions and were transferred to obtain a 12-point serial dilution of 0.05 to 200 μM. Next, UCHL1 (15 μL, final concentration of 1 nM) was dispensed with a Biotek MultiFlowFX liquid dispenser and incubated for 1 h, followed by dispensing the substrate Ub-Rho-Morpholine or Ub-AMC (5 μL, final concentration of 400 nM). The FI signal was monitored with a BMG Labtech PHERAstar plate reader (λex/em 487/535 nm or λex/em 350/450 nm) for 1 h. N-Ethylmaleimide (NEM, 10 mM) was used as a positive control (100% inhibition), and DMSO was used as a negative control (0% inhibition). All samples were normalized to the positive and negative controls and plotted against the inhibitor concentrations (in μM) using the built-in equation “[inhibitor] vs response – variable slope (four parameters), least-squares fit” with constraints “Bottom = 0” and “Top = 100” in GraphPad Prism 9.0.1 software to obtain the IC50 values.

PARK7 [5] = target: T2, PARK7; experiment: FP binding saturation experiment, kinact/KI of probe JYQ-107; set-up: GST (N, cleaved yes); made in house; host or cells: E. coli BL21(DE3) Rosetta2; conditions: FP probe binding to PARK7 (0 to 5 μM); slope of kobs vs PARK7 concentration; Figure S6D
Method: First, the relation between the change in FP values for JYQ-107 binding to PARK7 was determined. We used a fixed concentration (20 nM) of JYQ-107, incubated it with different amounts of PARK7 (0 to 5 μM), and monitored the FP signal (λex/em 485/520 nm) over time (Supporting Information Figure S6A). The change in FP (ΔmP) was plotted against PARK7 concentration after different incubation times (Figure 5B, left, Supporting Information Figure S6B). […] The latter is expected, as covalent complex formation has a time-dependency, and thus, equilibrium binding values could not be determined for the FP reagent.[45] […] To this end, we calculated the Z’ value, a critical parameter used to assess the quality and HTS suitability of a given assay, for the used PARK7 concentrations and incubation times (Figure 5B, right, Supporting Information Figure S6C).[46] […]
This assay was performed in the buffer containing 50 mM Tris–HCl, 150 mM NaCl, 2 mM TCEP, pH 7.5, and 1 mg/mL CHAPS and conducted in a 384-well plate (Corning 3820) with a reaction volume 20 μL in triplicate. A serial dilution of PARK7 from 0 to 5 μM (final concentration) was mixed with constant concentration JYQ-107 ([…]), and the increasing FP signal over time was measured at λex/em 480/520 nm using a PHERAstar (BMG Labtech) for 150 min. […]

| Compound | Binding to UCHL1 in the cell lysate (UCHL1 [1]) | Probe concentration at which a clear PARK7 band (20 kDa) was observed (PARK7 [2]) | Binding to wild-type PARK7 (PARK7 [3]; probe 2 μM, 1 h, Figure 4B) | Probe concentration from which PARK7 labeling was observed (PARK7 [3]) | Effect on remaining DUB activity (Rho-Ub-PA labeled bands) (DUBs) | IC50 (UCHL1 [4]) | kinact/KI (PARK7 [5]) |
| --- | --- | --- | --- | --- | --- | --- | --- |
| CC[N+]1=C(/C=C/C=C/C=C2/N(CCCCCC(=O)NCCCc3cn(CC(=O)N4CCc5nc(NC(=O)[C@@H]6CCN(C#N)C6)sc5C4)nn3)c3ccc(S(=O)(=O)O)cc3C2(C)C)C(C)(C)c2cc(S(=O)(=O)[O-])ccc21 [JYQ-92] | not to UCHL1 | 0.5 µM | only binds to the active wild-type PARK7 | 1 µM | no influence on DUB activity | 19.8 µM |  |
| N#CN1CC[C@@H](C(=O)Nc2nc3c(s2)CN(C(=O)Cn2cc(CCCNC(=O)c4ccc(-c5c6ccc(=N)cc-6oc6cc(N)ccc56)c(C(=O)O)c4)nn2)CC3)C1 [JYQ-107] |  |  |  | 1 µM |  | 18.5 µM | 1180 M⁻¹ s⁻¹ |
